Like-named read-outs stand apart in the source and are kept apart here.
Tests used:
MCF-7 cells = experiment: MTT anti-proliferative assay, MCF-7; format: cell-based, human; conditions: Homo sapiens, read-out: IC50 MCF-7
HeLa cells = experiment: MTT anti-proliferative assay, HeLa; format: cell-based; conditions: Homo sapiens, read-out: IC50 HeLa
GES-1 cells = experiment: MTT cytotoxicity assay, normal GES-1; format: cell-based, human; conditions: for IC50: Homo sapiens, read-out: IC50 GES-1
HepG2 cells = experiment: MTT anti-proliferative assay, HepG2; format: cell-based, human; conditions: read-out: IC50 HepG2
[1] = MTT, 48 h treatment, average ± SD of three independent experiments

IC50 (MCF-7 cells; MCF7, MTT, 48 h treatment, average ± SD of three independent experiments) | IC50 (HeLa cells; [1]) | IC50 (HepG2 cells; Homo sapiens, HepG2, 48 h, MTT, 48 h treatment, average ± SD of three independent experiments) | IC50 (HepG2 cells; [1]) | SMILES | IC50 (MCF-7 cells; MCF7, 48 h) | IC50 (HeLa cells; 48 h) | SI (GES-1 cells) | IC50 (GES-1 cells; GES1, 48 h) | IC50 (HepG2 cells; Homo sapiens, HepG2, 48 h) | IC50 (GES-1 cells; GES1, MTT, 48 h treatment, normal gastric epithelial cells, average ± SD of three independent experiments) | SI (GES-1 cells; SI = IC50 for GES-1 cell line/IC50 for HepG2 cell line)
– | – | – | – | CC(=O)OC1CCC2(C)C(=CCC3C2CCC2(C)C3CC3OC(CCC(C)C(=O)N4CCN(C(=O)c5ccc(N(CCCl)CCCl)cc5)CC4)C(C)C32)C1 [Compound 14e, (22 R,25R)-(1-piperazinyl-4-(bis(2-chloroethyl)amino)benzamido)-3β-acetoxy-5-en-furostan-26-amide] | 42.7 ± 2.25 µM | > 50 µM | 3.05 | 58.8 ± 1.34 µM | 19.3 ± 1.29 µM | – | –
– | – | – | – | CO[C@@]12[C@H](COC(N)=O)C3=C(C(=O)C(C)=C(N)C3=O)N1C[C@@H]1N[C@@H]12 [Mitomycin C, reference compound] | 16.7 ± 1.02 µM | 22 ± 1.12 µM | 0.72 | 23.4 ± 1.11 µM | 32.6 ± 1.22 µM | – | –
– | – | – | – | CC(CCC1OC2CC3C4CC=C5CC(O)CCC5(C)C4CCC3(C)C2C1C)C(=O)NCCCNC(=O)c1ccc(N(CCCl)CCCl)cc1 [Compound 15b, (22 R,25R)-(3-aminopropyl-4-(bis(2-chloroethyl)amino)benzamido)-3β-hydroxy-5-en-furostan-26-amide] | 37.2 ± 2.23 µM | 49.8 ± 2.13 µM | >7.14 | > 100 µM | 14 ± 1.15 µM | – | –
– | – | – | – | CC(CCC1OC2CC3C4CC=C5CC(O)CCC5(C)C4CCC3(C)C2C1C)C(=O)N1CCCN(C(=O)c2ccc(N(CCCl)CCCl)cc2)CC1 [Compound 15f, (22 R,25R)-(4–(1-homopiperazinyl)-4-(bis(2-chloroethyl)amino)benzamido)-3β-hydroxy-5-en-furostan-26-amide] | > 100 µM | > 50 µM | >5.28 | > 100 µM | 18.9 ± 0.93 µM | – | –
– | – | – | – | CC(=O)O[C@H]1CC[C@@]2(C)C(=CC[C@@H]3C2CC[C@]2(C)C4C(C[C@@H]32)O[C@H](CC[C@@H](C)COC(=O)c2ccc(N(CCCl)CCCl)cc2)[C@H]4C)C1 (stereo partly drawn) [Compound 10, (22 R,25R)-3β-acetoxy-5-en-furostan-26–4-(bis(2-chloroethyl)amino)benzoate] | 28.1 ± 1.52 µM | > 50 µM | – | > 100 µM | > 50 µM | – | –
– | – | – | – | C[C@H](CC[C@H]1OC2C[C@H]3[C@@H]4CC=C5C[C@@H](O)CC[C@]5(C)C4CC[C@]3(C)C2[C@@H]1C)COC(=O)c1ccc(N(CCCl)CCCl)cc1 (stereo partly drawn) [Compound 8, (22 R,25R)-3β-hydroxy-5-en-furostan-26–4-(bis(2-chloroethyl)amino)benzoate] | > 50 µM | > 50 µM | – | > 100 µM | > 50 µM | – | –
– | – | – | – | CC(CCC1OC2CC3C4CC=C5CC(O)CCC5(C)C4CCC3(C)C2C1C)C(=O)NCCNC(=O)c1ccc(N(CCCl)CCCl)cc1 [Compound 15a, (22 R,25R)-(2-aminoethyl-4-(bis(2-chloroethyl)amino)benzamido)-3β-hydroxy-5-en-furostan-26-amide] | > 100 µM | > 50 µM | 6.28 | 83.2 ± 3.12 µM | 13.2 ± 1.01 µM | – | –
23.9 ± 1.34 µM | 55.1 ± 2.11 µM | 32.6 µM | 33.9 ± 1.37 µM | C[C@@H]1CC[C@@]2(OC1)O[C@H]1C[C@H]3[C@@H]4CC=C5C[C@@H](O)CC[C@]5(C)[C@H]4CC[C@]3(C)[C@H]1[C@@H]2C [Diosgenin] | – | – | – | – | – | > 100 µM | >2.95
– | – | – | – | CC(=O)OC1CCC2(C)C(=CCC3C2CCC2(C)C3CC3OC(CCC(C)C(=O)NCCNC(=O)c4ccc(N(CCCl)CCCl)cc4)C(C)C32)C1 [Compound 14a, (22 R,25R)-(2-aminoethyl-4-(bis(2-chloroethyl)amino)benzamido)-3β-acetoxy-5-en-furostan-26-amide] | 48.3 ± 2.21 µM | 17.2 ± 2.81 µM | – | > 100 µM | 10.2 ± 1.01 µM | – | –
– | – | – | – | C[C@H](CC[C@H]1OC2C[C@H]3[C@@H]4CC=C5C[C@@H](OC(=O)c6ccc(N(CCCl)CCCl)cc6)CC[C@]5(C)C4CC[C@]3(C)C2[C@@H]1C)COC(=O)c1ccc(N(CCCl)CCCl)cc1 (stereo partly drawn) [Compound 9, (22 R,25R)-3β-((4-(bis(2-chloroethyl)amino)benzoyl)oxy)-5-en-furostan-26–4-(bis(2-chloroethyl)amino) benzoate] | > 50 µM | > 50 µM | – | > 100 µM | > 50 µM | – | –
– | – | – | – | CC(=O)OC1CCC2(C)C(=CCC3C2CCC2(C)C3CC3OC(CCC(C)C(=O)NCCCNC(=O)c4ccc(N(CCCl)CCCl)cc4)C(C)C32)C1 [Compound 14b, (22 R,25R)-(3-aminopropyl-4-(bis(2-chloroethyl)amino)benzamido)-3β-acetoxy-5-en-furostan-26-amide] | 30.3 ± 2.08 µM | > 100 µM | 1.86 | 47 ± 2.34 µM | 25.3 ± 1.4 µM | – | –
– | – | – | – | CC(CCC1OC2CC3C4CC=C5CC(O)CCC5(C)C4CCC3(C)C2C1C)C(=O)N1CCN(C(=O)c2ccc(N(CCCl)CCCl)cc2)CC1 [Compound 15e, (22 R,25R)-(1-piperazinyl-4-(bis(2-chloroethyl)amino)benzamido)-3β-hydroxy-5-en-furostan-26-amide] | > 50 µM | 28.5 ± 2.13 µM | – | > 100 µM | 14 ± 1.12 µM | – | –

Source: PMC9176691, “Design, synthesis and biological evaluation of novel diosgenin–benzoic acid mustard hybrids with potential anti-proliferative activities in human hepatoma HepG2 cells” (Journal of Enzyme Inhibition and Medicinal Chemistry, 2022)
